Data published in US20230087994A1, “TARGETED BIFUNCTIONAL DEGRADERS” (YALE UNIVERSITY, priority 2019, published 2023).
One block for each molecule: values may come before it.

How the values were obtained:
PC3 cells = experiment: Human prostate cancer PC3 tumor growth in mice; type: in vivo; conditions: control and comparator arms; FIG. 138
Procedure: The ability of MIF-GN3 to mediate the depletion of MIF in a therapeutically relevant disease model was investigated. […] An experiment was conducted to determine whether the bifunctional molecule MIF-GN3 can deplete sufficient human MIF from serum to slow PC3 tumor growth. Mice were injected with an aliquot of PC3 cells, and the size of the resultant tumors as well as the levels of human MIF in serum were monitored over five weeks. […] Five weeks after the initial PC3 cell injection, the first of the mice reached maximal tumor size ([…]) and was sacrificed (FIG. 138). […] The decrease in human MIF levels mediated by MIF-GN3 is consistent with a mechanism of action in which MIF-GN3 mediates the depletion and degradation of circulating MIF protein. While the α-MIF antibody would not necessarily be expected to decrease the levels of human MIF, it is possible that the antibody mediates MIF neutralization in a manner which masks its signal as determined by ELISA. Alternatively, the α-MIF antibody may mediate depletion or degradation of huMIF by some endocytic mechanism. Another possible explanation is that the α-MIF antibody decrease serum levels of active human MIF to such an extent at early time points that PC3 cells proliferate much more slowly, and therefore fewer cells are actively secreting human MIF.
Mice were sacrificed when their tumor volumes reached 1000 mm^3. […] At this same time point, less than 25% of the mice in any other arm had survived.

human MIF [1] = molecular target: T1, human MIF (Homo sapiens, UniProt P14174); experiment: Depletion of human MIF from cell culture supernatant (sandwich ELISA); type: cell-based; design: host or cells: exogenous protein added to cell culture; conditions: 24 hours; FIG. 128B
T1 sequence (P14174 2-115 limits assumed): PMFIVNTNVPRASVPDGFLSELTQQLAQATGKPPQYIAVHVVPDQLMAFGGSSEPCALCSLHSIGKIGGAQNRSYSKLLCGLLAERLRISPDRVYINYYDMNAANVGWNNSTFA
Procedure: The ability of bifunctional MIF-binding molecules to mediate the depletion of human MIF from cell culture was investigated. In these assays, human MIF was present at a concentration of 100 nM, and a sandwich ELISA assay was utilized to measure the concentration of human MIF remaining in the cell culture supernatant. The closely related bifunctional molecules MIF-GN3, MIF-PEG2-GN3, and MIF-PEG4-GN3 were used, as well as the structurally dissimilar molecule MIF-NVS-PEG3-GN3. […] Based on the ease of its synthesis and its efficacy in this experiment, MIF-GN3 was utilized for further studies. It was next investigated whether the MIF inhibitor 3w mediates MIF depletion from cell culture supernatant. […] When cells were treated with 3w, no depletion of exogenous MIF protein was observed after 24 hours (FIG. 128B).

human MIF [2] = molecular target: T1, human MIF; experiment: Depletion of injected recombinant human MIF from serum in mice; type: in vivo; design: injected into mice; conditions: control molecules; FIG. 136
Procedure: In vivo human MIF depletion experiments were undertaken to determine whether MIF-GN3 can mediate the depletion of injected recombinant human MIF from serum in mice. Mice were injected with five μg of the human MIF protein. In this experiment, one group of mice was also injected with a single 10 mpk dose of MIF-GN3 along with human MIF protein. It was observed that after four hours, the average level of human MIF in serum in the PBS-treated mice was 1.76 ng/mL (FIG. 134). In mice treated with 10 mpk MIF-GN3, however, the concentration of human MIF in serum was 0.68 ng/mL. One day after the initial injection, human MIF levels had reached background levels for both conditions. […] It was hypothesized that, due to the short half-life of human MIF in serum, investigating human MIF levels at earlier time points may be more informative.
Next, an experiment was performed to determine whether MIF-GN3 could enhance MIF clearance at time points earlier than four hours. Mice were coinjected with recombinant human MIF and 10 mpk MIF-GN3 via either i.p. or i.v. routes. For the PBS control arms, human MIF was injected with PBS. It was observed that in the absence of MIF-GN3, there was a spike in huMIF levels in circulation after 30 minutes (FIG. 135). In the presence of MIF-GN3, however, levels of MIF protein remained low at 30 minutes and no spike in its concentration was observed. By two hours, the levels of human MIF in circulation decreased to background levels. […] In a further experiment, whether an inhibitor of the MIF protein (3w) is able to mediate the protein's depletion from serum was determined. A bifunctional molecule that mediates the depletion of α-DNP antibody from serum was also assayed as a negative control. Neither of these molecules was expected to mediate the formation of a ternary complex between human MIF protein and ASGPR.
In order to confirm that mice injected with one or ten mpk MIF-GN3 had received the injection, and that the observed stability of MIF concentrations in MIF-GN3 treated mice was not the result of injection error, 200 μg of α-DNP antibody was coinjected with the MIF protein in this experiment. […] An investigation of the ability of MIF-GN3 to mediate the depletion of endogenous mouse MIF in vivo was next undertaken. Mice were treated with either PBS or 10 mpk of MIF-GN3. […] One possible explanation for this finding is that MIF protein may be synthesized rapidly, and any increase in degradation mediated by MIF-GN3 may not be of a large enough magnitude to impact the protein's level in serum.

HepG2 cells [3] = experiment: DNP-GN3-mediated endocytosis of fluorescently labeled α-DNP antibody by adherent HepG2 cells; type: cell-based, human; conditions: competitive binders at high concentrations; FIG. 88
HepG2 cells [4] = experiment: DNP-AF3-mediated endocytosis of fluorescently labeled α-DNP antibody by HepG2 cells (flow cytometry); type: cell-based, human; conditions: 40 nM DNP-AF3, 100 nM antibody; for effect of endocytic pathway inhibitors on fluorescence of the cell population: FIG. 106
Procedure: The intracellular fluorescence of cells that were incubated at 37° C. with both fluorescently labeled α-DNP antibody and DNP-AF3 for a given amount of time was examined. Cells were then washed, removed from the plate with trypsin, and subjected to flow cytometry. Trypsin treatment is expected to cleave ASGPR and surface-bound α-DNP antibody from cells, and therefore the cellular fluorescence observed in these assays is expected to arise only from internalized antibodies.
It was then determined if reagents which inhibit ternary complex formation inhibit endocytosis mediated by DNP-AF3. In order to account for non-specific antibody association with cells, the mean fluorescence intensity of an aliquot of cells which had been treated with α-DNP antibody but not DNP-AF3 was subtracted from each reading. […] In the presence of 2.38 μM (0.1 mg/mL) ASOR, the cell population fluorescence was decreased to 4.66e5 (FIG. 105); at this ASOR concentration, ternary complex formation is decreased by approximately 70%. Because ternary complex is not inhibited completely at this concentration of ASOR, it is expected that productive endocytic events are still taking place.

[5] = molecular target: T2, ASGPR on the surface of immortalized human hepatocyte HepG2 cells (Homo sapiens, UniProt P07306+P07307); experiment: DNP-GN3-mediated ternary complex formation: association of fluorescently labeled α-DNP antibody with HepG2 cells in suspension; type: cell-based
T2 sequence (P07306 1-291): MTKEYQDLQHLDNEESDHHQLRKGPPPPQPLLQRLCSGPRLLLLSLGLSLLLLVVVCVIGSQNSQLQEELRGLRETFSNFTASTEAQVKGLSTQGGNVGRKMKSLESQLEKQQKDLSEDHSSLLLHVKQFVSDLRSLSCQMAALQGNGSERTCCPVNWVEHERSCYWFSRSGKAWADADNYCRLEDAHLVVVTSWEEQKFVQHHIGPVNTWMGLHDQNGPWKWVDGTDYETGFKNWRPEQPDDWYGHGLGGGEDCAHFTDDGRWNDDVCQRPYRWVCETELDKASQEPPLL
T2 sequence (P07307 1-311): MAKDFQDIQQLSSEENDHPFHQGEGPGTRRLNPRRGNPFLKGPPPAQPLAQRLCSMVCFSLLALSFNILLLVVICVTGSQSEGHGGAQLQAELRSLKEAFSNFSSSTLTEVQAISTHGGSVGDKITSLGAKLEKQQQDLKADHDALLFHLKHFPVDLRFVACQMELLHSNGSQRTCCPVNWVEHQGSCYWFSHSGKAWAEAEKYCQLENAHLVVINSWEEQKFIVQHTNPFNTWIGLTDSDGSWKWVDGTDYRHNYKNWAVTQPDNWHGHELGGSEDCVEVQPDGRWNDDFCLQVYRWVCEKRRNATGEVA
Text: It was investigated whether DNP-GN3 could mediate the formation of a ternary complex between a fluorescently labeled α-DNP antibody and ASGPR on the surface of immortalized human hepatocyte HepG2 cells in suspension. […] The observed bell-shaped response to DNP-GN3 concentration is consistent with the prozone effect commonly observed in systems wherein a ternary complex is formed.

HepG2 cells [6] = experiment: DNP-GN3-mediated endocytosis of fluorescently labeled α-DNP antibody by adherent HepG2 cells; type: cell-based, human; conditions: DNP-GN3-mediated uptake; FIG. 89
Procedure: It was next explored whether DNP-GN3 mediates the endocytosis of fluorescently labeled α-DNP antibody.
To explore the cellular mechanism of antibody uptake, cells were treated with chemical inhibitors of several endocytic pathways (FIG. 89).

HepG2 cells [7] = experiment: MIF-GN3-mediated endocytosis of fluorescently labeled human MIF by HepG2 cells; conditions: 100 nM MIF, 200 nM MIF-GN3; FIG. 132
Procedure: Human MIF protein was fluorescently labeled with Alexa 488 NHS ester, then incubated with HepG2 cells in the presence of varying levels of MIF-GN3.
Next, inhibitors of various endocytic pathways were utilized to determine if MIF-GN3 mediates MIF endocytosis in a manner consistent with ASGPR (FIG. 132).

[8] = molecular target: human IgG (fluorescently labeled) (human); experiment: cell-based or functional assay
[9] = molecular target: T3, asialoglycoprotein receptor (ASGPR) on the surface of immortalized human hepatocyte HepG2 cells (human) (UniProt P07306); experiment: cell-based or functional assay
T3 sequence (looked up) 1: T2 sequence (P07306 1-291)
T3 sequence (looked up) 2: T2 sequence (P07307 1-311)

[10] = molecular target: T3, asialoglycoprotein receptor (ASGPR) on the surface of immortalized human hepatocyte HepG2 cells (human); experiment: competition, flow cytometry: inhibition of DNP-GN3-mediated association of fluorescent α-DNP antibody with HepG2 cells in suspension (ASGPR on cells)
[11] = molecular target: T3, asialoglycoprotein receptor (ASGPR) on the surface of immortalized human hepatocyte HepG2 cells (human); experiment: competition, flow cytometry on HepG2 cells against 40 nM DNP-AF3 and 100 nM α-DNP antibody

- depletion of exogenous MIF protein from supernatant (human MIF [1]): no depletion
- human MIF concentration in serum compared to the PBS control (human MIF [2]): no significant decreases
Molecule: Oc1ccc(-n2cc(-c3ccc4cc(OCCOCCN5CCOCC5)ccc4n3)nn2)cc1F [Compound 3w, reference compound]
- PC3 tumor growth (PC3 cells): not found to decrease tumor growth

Molecule: CC(=O)N[C@H]1C(O)O[C@H](CO)[C@H](O)[C@@H]1O (some centres unmarked) [GalNAc, N-acetylgalactosamine]
- effect on DNP-GN3-mediated α-DNP antibody endocytosis (HepG2 cells [3]): significantly decreased
- effect on DNP-AF3-mediated α-DNP antibody endocytosis (HepG2 cells [4]; ASF 2.07 μM, AF and GalNAc 1.25 mM, FIG. 105): significantly decreased cellular fluorescence
- IC50 [5]: 200000 nM

Molecule: N=C(N)NC(=O)c1nc(Cl)c(N)nc1N [amiloride, Amiloride]
- effect of endocytic pathway inhibitors on intracellular fluorescence (HepG2 cells [6]): did not significantly decrease
- effect of endocytic pathway inhibitors on MIF-GN3-mediated MIF endocytosis (HepG2 cells [7]): did not impact cellular fluorescence significantly
- effect of endocytic pathway inhibitors on fluorescence of the cell population (HepG2 cells [4]): A decrease in cellular fluorescence

Molecule: COc1ccc2c(c1)c(CC(=O)O)c(C)n2C(=O)c1ccc(Cl)cc1 [indomethacin, Indomethacin]
- effect of endocytic pathway inhibitors on MIF-GN3-mediated MIF endocytosis (HepG2 cells [7]): did not decrease
- effect of endocytic pathway inhibitors on fluorescence of the cell population (HepG2 cells [4]): did not significantly decrease

Molecule: C[C@@H]1[C@H](O)[C@@H](C)/C=C/C=C/CC/C=C/C=C/C=C/C=C/C(O[C@H]2O[C@H](C)[C@@H](O)[C@H](N)[C@@H]2O)CC2O[C@](O)(CC(O)C(O)CCC(O)CC(O)CC(O)CC(=O)O[C@H]1C)CC(O)C2C(=O)O (some centres unmarked) [nystatin, Nystatin]
- effect of endocytic pathway inhibitors on intracellular fluorescence (HepG2 cells [6]): did not significantly decrease
- effect of endocytic pathway inhibitors on MIF-GN3-mediated MIF endocytosis (HepG2 cells [7]): did not decrease
- effect of endocytic pathway inhibitors on fluorescence of the cell population (HepG2 cells [4]): did not significantly decrease

- endocytosis of human IgG by HepG2 cells over time and concentration: most effective FcIII-BCN-GN3 concentration [8]: 1 µM
Molecule: FcIII-BCN-GN3 (peptide)

- endocytosis of Alexa 488-labeled human IgG by HepG2 cells (flow cytometry, six hours): FcIII-GN3 concentration giving maximal uptake [8]: 200 nM
Molecule: FcIII-GN3 (oxidized cyclized form) (peptide)

Molecule: asialoorosomucoid (ligand)
- mean fluorescence of the HepG2 cell population (DNP-AF3-mediated α-DNP antibody endocytosis) in the presence of 2.38 µM (0.1 mg/mL) ASOR; approximately 1.31e6 without inhibitor (mean fluorescence) [9]: 466000
- IC50 [10]: 17 nM
- percent decrease of ternary complex formation at 2.38 µM (0.1 mg/mL) ASOR [11]: 70%

B1: asialofetuin (ligand, UniProt P12763 19-359, looked up, species assumed)
Alpha-2-HS-glycoprotein: IPLDPVAGYKEPACDDPDTEQAALAAVDYINKHLPRGYKHTLNQIDSVKVWPRRPTGEVYDIEIDTLETTCHVLDPTPLANCSVRQQTQHAVEGDCDIHVLKQDGQFSVLFTKCDSSPDSAEDVRKLCPDCPLLAPLNDSRVVHAVEVALATFNAESNGSYLQLVEISRAQFVPLPVSVSVEFAVAATDCIAKEVVDPTKCNLLAEKQYGFCKGSVIQKALGGEDVRVTCTLFQTQPVIPQPQPDGAEAEAPSAVPDAAGPTPSAAGPPVASVVVGPSVVAVPLPLHRAHYDLRHTFSGVASVESSSGEAFHVGKTPIVGQPSIPGGPVRLCPGRIRYFKI
modifications: desialylated
- IC50 [10]: 65 nM
